From patent US20250136570A1 (Tango Therapeutics, Inc., priority 2021, published 2025)

Experiments:
[1] = target: Recombinant HDAC1 (Homo sapiens (Human), UniProt Q13547); experiment: HDAC1 inhibition, Fluor de Lys fluorescent enzyme assay; assay type: biochemical; conditions: 3 hours pre-incubation at room temp; 6 nM enzyme; 16 μM Fluor de Lys substrate; duplicate
Source text: (§1) Recombinant HDAC1 (cat #: 50051) and HDAC3/NCor2 (cat #: 50003) enzymes were purchased from BPS Bioscience (San Diego, CA, US). Assay reagents for the detection of HDAC enzyme activity (Fluor de Lys®—Green substrate and Developer kits) were purchased from Enzo Life Science (Farmingdale, NY, US). Plates used to conduct the enzyme reaction were Proxiplate-384 (cat #: 6008280) Plus from PerkinElmer (Waltham, MA, US). TSA, an HDAC inhibitor, was purchased from Enzo Life Science (cat #BML-GR309-9090) The remainder of the reagents used to prepare the assay buffer were purchased from Sigma-Aldrich (St Louis, MO, US). Unless stated otherwise, HDAC1 and 3 assays were conducted in 50 mM Tris buffer, pH 8, 137 mM NaCl, 2.7 mM KCl, 0.01% BSA.
(§2) IC50 determination for HDAC1 and HDAC3—Prior to adding reagents, 50 nL/well of compound were added to Proxiplates using an Echo dispenser instrument (Beckman Coulter, CA, US). After addition of compound, 2.5 μL/well of 2× enzyme solution was added and the enzyme was pre-incubated with compound for 3 hours at room temp. (˜22° C.). After the pre-incubation period, the enzyme reaction was initiated by adding 2.5 μL/well of 2× Fluor de Lys® substrate solution. The assay reaction was stopped after one hour by adding 5 μl/well of a 0.66× Developer solution containing TSA (3.2 μM). The final product of the enzyme reaction was read using a Spectramax plate reader instrument (Molecular Devices, CA, US) using a fluorescent readout (Ex 360 nm/Em 460 nm). The final enzyme concentrations in the assay buffer for HDAC1 and 3 were 6 and 1.2 nM, respectively. The final Fluor de Lys® substrate concentration in the assay buffer was 16 μM for all HDAC enzymes. IC50 values were determined using the following equation: […]
(§3) Where Efree and Eo are the free and total amount of HDAC enzyme in the reaction mixture, n is the hill coefficient, I is the free inhibitor concentration, and IC50 is the measure of the potency equivalent to the inhibitor concentration that leads to a 50% occupancy of the total enzyme. Each data was generated in duplicate.

[2] = target: HDAC3/NCor2 (Homo sapiens (Human), UniProt O15379); experiment: HDAC3 inhibition, Fluor de Lys fluorescent enzyme assay; assay type: biochemical; conditions: 3 hours pre-incubation at room temp; 1.2 nM enzyme; 16 μM Fluor de Lys substrate; duplicate
Chain of HDAC3/NCor2 (O15379 whole entry): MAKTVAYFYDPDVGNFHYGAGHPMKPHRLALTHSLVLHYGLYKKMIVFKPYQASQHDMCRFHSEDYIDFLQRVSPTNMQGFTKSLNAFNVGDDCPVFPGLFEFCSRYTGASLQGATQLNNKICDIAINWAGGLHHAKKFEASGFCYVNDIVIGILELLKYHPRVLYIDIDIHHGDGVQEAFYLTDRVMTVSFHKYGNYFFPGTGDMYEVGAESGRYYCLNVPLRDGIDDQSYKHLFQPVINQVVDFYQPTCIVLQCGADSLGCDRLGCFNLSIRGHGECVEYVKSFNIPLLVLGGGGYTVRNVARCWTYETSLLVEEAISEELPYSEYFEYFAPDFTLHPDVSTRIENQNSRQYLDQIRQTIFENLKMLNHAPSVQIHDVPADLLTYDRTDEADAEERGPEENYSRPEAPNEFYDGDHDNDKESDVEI
Chain of HDAC3/NCor2 (Q9Y618 395-489 partner): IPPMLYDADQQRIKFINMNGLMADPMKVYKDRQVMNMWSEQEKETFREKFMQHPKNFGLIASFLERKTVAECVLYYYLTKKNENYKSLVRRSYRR
Source text: as §1, §2, §3

Chain of Recombinant HDAC1 (Q13547 whole entry): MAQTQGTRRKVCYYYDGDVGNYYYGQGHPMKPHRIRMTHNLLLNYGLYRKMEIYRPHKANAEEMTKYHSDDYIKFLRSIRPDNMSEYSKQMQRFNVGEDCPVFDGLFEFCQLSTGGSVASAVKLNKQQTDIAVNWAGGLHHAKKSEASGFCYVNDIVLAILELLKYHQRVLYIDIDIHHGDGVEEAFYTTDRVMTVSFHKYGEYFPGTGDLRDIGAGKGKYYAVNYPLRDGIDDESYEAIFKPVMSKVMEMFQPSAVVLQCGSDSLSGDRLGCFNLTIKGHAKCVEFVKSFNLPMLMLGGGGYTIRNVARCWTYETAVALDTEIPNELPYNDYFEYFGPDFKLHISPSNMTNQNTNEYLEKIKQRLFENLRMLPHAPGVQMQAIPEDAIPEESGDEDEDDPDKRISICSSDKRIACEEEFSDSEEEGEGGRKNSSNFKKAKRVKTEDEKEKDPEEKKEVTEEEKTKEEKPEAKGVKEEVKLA

Row | SMILES | IC50 [1] [µM] | IC50 [2] [µM]
1 | N=S(=O)(c1ccc(C(=O)Nc2cc(-c3ccc(F)cc3)ccc2N)cc1)C1CC1 (racemic) [Compound 111, rac-N-[2-amino-5-(4-fluorophenyl)phenyl]-4-(cyclopropylsulfonimidoyl)benzamide] | < 0.1 | 0.5 to 2
2 | C[S@@](=N)(=O)c1ccc(C(=O)Nc2cc(-c3cccs3)ccc2N)cc1 (single isomer, unassigned) [Compound 105] | < 0.1 | 0.5 to 2
3 | C[S@](=N)(=O)c1ccc(C(=O)Nc2cc(-c3cccs3)ccc2N)cc1 (single isomer, unassigned) [Compound 106] | < 0.1 | 0.5 to 2
4 | N=[S@](=O)(c1ccc(C(=O)Nc2cc(-c3cccs3)ccc2N)cc1)C1CC1 (single isomer, unassigned) [Compound 114] | < 0.1 | 0.5 to 2
5 | N=[S@@](=O)(c1ccc(C(=O)Nc2cc(-c3cccs3)ccc2N)cc1)C1CC1 (single isomer, unassigned) [Compound 115] | < 0.1 | 0.5 to 2
6 | N=S(=O)(c1ccccc1)c1ccc(C(=O)Nc2cc(-c3cccs3)ccc2N)cc1 (centres unmarked) [Compound 102, N-[2-amino-5-(2-thienyl)phenyl]-4-(phenylsulfonimidoyl)benzamide] | < 0.1 | 0.5 to 2
7 | N=S(=O)(c1ccc(C(=O)Nc2cc(-c3cccs3)ccc2N)cc1)C1CC1 (centres unmarked) [Compound 103, N-[2-amino-5-(2-thienyl)phenyl]-4-(cyclopropylsulfonimidoyl)benzamide] | < 0.1 | 0.5 to 2
8 | CS(=N)(=O)c1ccc(C(=O)Nc2cc(-c3ccc(F)cc3)ccc2N)cc1 (centres unmarked) [Compound 104, N-[2-amino-5-(4-fluorophenyl)phenyl]-4-(methylsulfonimidoyl)benzamide] | < 0.1 | 0.5 to 2
9 | CS(=N)(=O)c1ccc(C(=O)Nc2cc(-c3cccnc3)ccc2N)cc1 (centres unmarked) [Compound 107, N-[2-amino-5-(3-pyridyl)phenyl]-4-(methylsulfonimidoyl)benzamide] | 0.1 to 0.5 | 0.5 to 2
10 | CS(=N)(=O)c1ccc(C(=O)Nc2cc(-c3ccncc3)ccc2N)cc1 (centres unmarked) [Compound 108, N-[2-amino-5-(4-pyridyl)phenyl]-4-(methylsulfonimidoyl)benzamide] | < 0.1 | > 2
11 | CS(=N)(=O)c1ccc(C(=O)Nc2cc(-c3ccc(F)s3)ccc2N)cc1 (centres unmarked) [Compound 109, N-[2-amino-5-(5-fluoro-2-thienyl)phenyl]-4-(methylsulfonimidoyl)benzamide] | < 0.1 | 0.5 to 2
12 | CS(=N)(=O)c1ccc(C(=O)Nc2cc(-c3cccs3)ccc2N)cn1 (centres unmarked) [Compound 110, N-[2-amino-5-(2-thienyl)phenyl]-6-(methylsulfonimidoyl)pyridine-3-carboxamide] | < 0.1 | 0.5 to 2
13 | CC(C)(C)OC(=O)N=S(=O)(c1ccc(C(=O)Nc2cc(-c3cccs3)ccc2NC(=O)OC(C)(C)C)cc1)C1CC1 (centres unmarked) [Compound 112, tert-butyl N-[[4-[[2-(tert-butoxycarbonylamino)-5-(2-thienyl)phenyl]carbamoyl]phenyl]-cyclopropyl-oxo-sulfanylidene]carbamate] | > 2 | > 2
14 | CS(=N)(=O)c1ccc(C(=O)Nc2cc(-c3cccs3)ccc2N)nc1 (centres unmarked) [Compound 113, N-[2-amino-5-(2-thienyl)phenyl]-5-(methylsulfonimidoyl)pyridine-2-carboxamide] | < 0.1 | 0.5 to 2
15 | Nc1ccc(-c2cccs2)cc1NC(=O)c1ccc(S2(=O)=NCCC2)cc1 (centres unmarked) [Compound 126, N-[2-amino-5-(2-thienyl)phenyl]-4-(1-oxo-4,5-dihydro-3H-isothiazol-1-yl)benzamide] |  | 0.5 to 2

The remaining lines, values ahead:

Row | IC50 [1] [µM] | IC50 [2] [µM] | SMILES
16 | < 0.1 | 0.5 to 2 | N=S(=O)(c1ccc(C(=O)Nc2cc(-c3ccc(F)s3)ccc2N)cc1)C1CC1 (racemic) [Compound 127, rac-N-[2-amino-5-(5-fluoro-2-thienyl)phenyl]-4-(cyclopropylsulfonimidoyl)benzamide]
17 | < 0.1 | > 2 | Nc1ccc(-c2ccc(F)cc2)cc1NC(=O)c1ccc([S@]2(=O)=N[C@@H](c3ccccc3)CC2)cc1 (racemic) [Compound 196, rac-N-(4-amino-4′-fluoro-[1,1′-biphenyl]-3-yl)-4-((1S,3R)-1-oxido-3-phenyl-4,5-dihydro-3H-1λ^6-isothiazol-1-yl)benzamide]
18 | < 0.1 | > 2 | Nc1ccc(-c2ccc(F)cc2)cc1NC(=O)c1ccc([S@@]2(=O)=N[C@@H](c3ccccc3)CC2)cc1 (racemic) [Compound 229, rac-N-(4-amino-4′-fluoro-[1,1′-biphenyl]-3-yl)-4-((1R,3R)-1-oxido-3-phenyl-4,5-dihydro-3H-1λ^6-isothiazol-1-yl)benzamide]
19 | < 0.1 | 0.5 to 2 | N=[S@](=O)(c1ccc(C(=O)Nc2cc(-c3ccc(F)s3)ccc2N)cc1)C1CC1 (single isomer, unassigned) [Compound 131]
20 | < 0.1 | 0.5 to 2 | N=[S@@](=O)(c1ccc(C(=O)Nc2cc(-c3ccc(F)s3)ccc2N)cc1)C1CC1 (single isomer, unassigned) [Compound 133]
21 | < 0.1 | 0.5 to 2 | N=[S@](=O)(c1ccc(C(=O)Nc2cc(-c3ccc(F)cc3)ccc2N)cc1)C1CC1 (single isomer, unassigned) [Compound 145]
22 | < 0.1 | 0.5 to 2 | N=[S@@](=O)(c1ccc(C(=O)Nc2cc(-c3ccc(F)cc3)ccc2N)cc1)C1CC1 (single isomer, unassigned) [Compound 146]
23 | < 0.1 | 0.5 to 2 | N=[S@@](=O)(c1ccc(C(=O)Nc2cc(-c3ccc(F)cc3)ccc2N)cc1)c1cncnc1 (single isomer, unassigned) [Compound 181]
24 | < 0.1 | 0.5 to 2 | N=[S@](=O)(c1ccc(C(=O)Nc2cc(-c3ccc(F)cc3)ccc2N)cc1)c1cncnc1 (single isomer, unassigned) [Compound 183]
25 | < 0.1 | 0.5 to 2 | N=[S@@](=O)(c1ccc(C(=O)Nc2cc(-c3ccc(F)cc3)ccc2N)cc1)c1ccccn1 (single isomer, unassigned) [Compound 212]
26 | < 0.1 | 0.5 to 2 | N=[S@](=O)(c1ccc(C(=O)Nc2cc(-c3ccc(F)cc3)ccc2N)cc1)c1ccccn1 (single isomer, unassigned) [Compound 220]
27 | < 0.1 | 0.5 to 2 | Nc1ccc(-c2ccc(F)cc2)cc1NC(=O)c1ccc([S@]2(=O)=NCCC2)cc1 (stereo in doubt) [Compound 184, N-[2-amino-5-(4-fluorophenyl)phenyl]-4-[rel-(1S)-1-oxo-4,5-dihydro-3H-isothiazol-1-yl]benzamide]
28 | < 0.1 | 0.5 to 2 | Nc1ccc(-c2ccc(F)cc2)cc1NC(=O)c1ccc([S@@]2(=O)=NCCC2)cc1 (stereo in doubt) [Compound 185, N-[2-amino-5-(4-fluorophenyl)phenyl]-4-[rel-(1R)-1-oxo-4,5-dihydro-3H-isothiazol-1-yl]benzamide]
29 |  | 0.5 to 2 | Nc1ccc(-c2ccc(F)cc2)cc1NC(=O)c1ccc(S2(=O)=NCCC2)cc1 (centres unmarked) [Compound 154, N-[2-amino-5-(4-fluorophenyl)phenyl]-4-(1-oxo-4,5-dihydro-3H-isothiazol-1-yl)benzamide]
30 |  | 0.5 to 2 | Nc1ccc(-c2ccc(F)s2)cc1NC(=O)c1ccc(S2(=O)=NCCC2)cc1 (centres unmarked) [Compound 160, N-[2-amino-5-(5-fluoro-2-thienyl)phenyl]-4-(1-oxo-4,5-dihydro-3H-isothiazol-1-yl)benzamide]
31 |  | 0.5 to 2 | Nc1ccc(-c2ccc(F)cc2)cc1NC(=O)c1ccc(S2(=O)=NCCC2)nc1 (centres unmarked) [Compound 178, N-[2-amino-5-(4-fluorophenyl)phenyl]-6-(1-oxo-4,5-dihydro-3H-isothiazol-1-yl)pyridine-3-carboxamide]
32 |  | 0.5 to 2 | CS(=N)(=O)Cc1ccc(C(=O)Nc2cc(-c3ccc(F)cc3)ccc2N)cn1 (centres unmarked) [Compound 201]
33 |  | 0.5 to 2 | Nc1ccc(-c2ccc(F)cc2)cc1NC(=O)c1cc2cc(S3(=O)=NCCC3)ccc2s1 (centres unmarked) [Compound 204]
34 |  | 0.5 to 2 | N=S(=O)(c1ccc(C(=O)Nc2cc(-c3ccc(F)cc3)ccc2N)cc1)c1ccc(Cl)cn1 (centres unmarked) [Compound 213]
35 |  | 0.5 to 2 | Nc1ccc(-c2ccc(F)cc2)cc1NC(=O)c1ccc(S2(=O)=NCCCC2)cc1 (centres unmarked) [Compound 243, N-[2-amino-5-(4-fluorophenyl)phenyl]-4-(1-oxo-1thia-2-azacyclohexen-1-yl)benzamide]
